Assay results: US12491170B2, “Stable treprostinil prodrugs” (United Therapeutics Corporation, priority 2020, dated 2025)
Read-outs that look alike come from different tables or passages of the source.

Columns and labels:
[1] = Stability in liver microsomes, human; details: for AUC: human
[2] = Stability in human subcutaneous skin homogenate; details: for AUC: human
Experimental: The pool of skin homogenate was prepared by combining equal volumes of three lots that were tested in the initial skin homogenate lot assessment experiments.
A stock solution of calcein-AM was first prepared at 5 mM in DMSO, followed by a serial dilution into methanol at a concentration of 100 μM. 495 μL of skin homogenate was thawed and warmed to 37° C. A 5 μL aliquot of the 100 μM calcein-AM solution was spiked into the skin homogenate, for a final calcein-AM dosing concentration of 1 μM. After briefly mixing, 150 μL aliquots were removed in triplicate and transferred to 96-well Falcon plates. The plates were placed onto a Thermomixer and maintained at 37° C., with gentle shaking for the duration of the experiment. At each time point (0, 15, 30, 60, and 120 minutes), the plate was removed from the Thermomixer and transferred to a FLUOstar® plate reader, and the formation of calcein (Sigma) was monitored by fluorescence (490/515 nm). Calibration standards of calcein were prepared in distilled water by serial dilutions of a calcein DMSO stock at final concentrations ranging from 1 μM to 1 nM. All samples and standards were read concurrently (Table 13).
For each of the test articles, 495 μL of skin homogenate was added to triplicate centrifuge tubes. To each tube, 5 μL of a 100 μM solution of test article was added, for a final test article dosing concentration of 1 μM. The tubes were placed onto a Thermomixer and maintained at 37° C. with gentle shaking for the duration of the experiment. At each time point (0, 30, 60, and 120 minutes), a 100 μL aliquot was removed from each tube and combined with 200 μL of acetonitrile to stop the stability reaction. The tubes were mixed and centrifuged at 3000 rpm for 10 minutes. Aliquots of supernatant were removed and diluted 1:1 with distilled water containing internal standard (2 μM treprostinil-d4). Calibration standards for the treprostinil analysis were prepared for each test article in a surrogate matrix (supernatant from a mixture of 1:2 human plasma:acetonitrile), at concentrations ranging from 1 μM to 1 nM. Calibration standards were also diluted 1:1 with distilled water containing internal standard. The disappearance of each individual test article was monitored, as well as the formation of treprostinil (Table 14 and Table 15).

[3] = rat
[4] = dog
[5] = Stability in liver microsomes, rat
[6] = Stability in liver microsomes, dog

Compound	Trep Concentration 0 min [1]	Trep Concentration 10 min [1]	Trep Concentration 20 min [1]	Trep Concentration 30 min [1]	Trep Concentration 60 min [1]	AUC [1]	Trep Concentration 0 min [2]	Trep Concentration 60 min [2]	Trep Concentration 120 min [2]	AUC [2]	AUC [3]	AUC [4]	Trep Concentration 0 min [5]	Trep Concentration 10 min [5]	Trep Concentration 20 min [5]	Trep Concentration 30 min [5]	Trep Concentration 60 min [5]	Trep Concentration 0 min [6]	Trep Concentration 10 min [6]	Trep Concentration 20 min [6]	further results
CCCCCC(CCC1C(O)CC2Cc3c(cccc3OCC(=O)O)CC21)OC(=O)CN (stereo not shown) [XXX]	0.036 µM	0.132 µM	0.227 µM	0.31 µM	0.429 µM	16.41 µmol·min/L	0 µM	0.369 µM	0.533 µM	38.78 µmol·min/L	6.86 µmol·min/L	30.11 µmol·min/L	0.011 µM	0.0524 µM	0.0901 µM	0.122 µM	0.196 µM	0.0977 µM	0.347 µM	0.495 µM	Trep Concentration 30 min [2]: 0.206 µM; Trep Concentration 30 min [6]: 0.562 µM; Trep Concentration 60 min [6]: 0.664 µM
CCCCCC(CCC1C(O)CC2Cc3c(cccc3OCC(=O)O)CC21)OC(=O)NCC(=O)O (stereo not shown) [XXXVIII]	0 µM	0 µM	0 µM	0 µM	0 µM	0.00 µmol·min/L	0 µM	0 µM	0 µM	0.00 µmol·min/L	0.00 µmol·min/L	0.00 µmol·min/L	0 µM	0 µM	0 µM	0 µM	0 µM	0 µM	0 µM	0 µM	Trep Concentration 30 min [2]: 0 µM; Trep Concentration 30 min [6]: 0 µM; Trep Concentration 60 min [6]: 0 µM
CCCCCC(CCC1C(O)CC2Cc3c(cccc3OCC(=O)O)CC21)OCOC(=O)C(C)(C)C (stereo not shown) [LII]	0.948 µM	0.798 µM	0.679 µM	0.538 µM	0.346 µM	35.46 µmol·min/L	0.0201 µM	1.22 µM	1.3 µM	125.70 µmol·min/L	51.78 µmol·min/L	50.60 µmol·min/L	0.937 µM	0.938 µM	0.892 µM	0.838 µM	0.802 µM	0.758 µM	0.885 µM	0.868 µM	Trep Concentration 30 min [2]: 1.05 µM; Trep Concentration 30 min [6]: 0.834 µM; Trep Concentration 60 min [6]: 0.84 µM
CCCCCC(CCC1C(O)CC2Cc3c(cccc3OCC(=O)O)CC21)OC(=O)C(C)N (stereo not shown) [XXXI]	0.0531 µM	0.193 µM	0.31 µM	0.327 µM	0.383 µM	17.58 µmol·min/L	0 µM	0.204 µM	0.323 µM	22.23 µmol·min/L	3.09 µmol·min/L	35.65 µmol·min/L	0.00504 µM	0.0179 µM	0.0351 µM	0.0465 µM	0.107 µM	0.134 µM	0.479 µM	0.63 µM	Trep Concentration 30 min [6]: 0.674 µM; Trep Concentration 60 min [6]: 0.694 µM
CCCCCC(CCC1C(O)CC2Cc3c(cccc3OCC(=O)O)CC21)OC(=O)OCC(=O)O (stereo not shown) [XXXIX]	0 µM	0 µM	0 µM	0 µM	0 µM	0.00 µmol·min/L	0 µM	0 µM	0 µM	0.00 µmol·min/L	0.00 µmol·min/L	0.00 µmol·min/L	0 µM	0 µM	0 µM	0 µM	0 µM	0 µM	0 µM	0 µM	Trep Concentration 30 min [2]: 0 µM; Trep Concentration 30 min [6]: 0 µM; Trep Concentration 60 min [6]: 0 µM

More lines, main results first:

Trep Concentration 0 min [1]	Trep Concentration 10 min [1]	Trep Concentration 20 min [1]	Trep Concentration 30 min [1]	Trep Concentration 60 min [1]	AUC [1]	Trep Concentration 0 min [2]	Trep Concentration 60 min [2]	Trep Concentration 120 min [2]	AUC [2]	AUC [3]	AUC [4]	Trep Concentration 0 min [5]	Trep Concentration 10 min [5]	Trep Concentration 20 min [5]	Trep Concentration 30 min [5]	Trep Concentration 60 min [5]	Trep Concentration 0 min [6]	Trep Concentration 10 min [6]	Trep Concentration 20 min [6]	Compound	further results
0.55 µM	0.55 µM	0.5 µM	0.39 µM	0.27 µM	25.10 µmol·min/L	0 µM	0.12 µM	0.22 µM	13.92 µmol·min/L	29.40 µmol·min/L	42.10 µmol·min/L	0.29 µM	0.46 µM	0.48 µM	0.53 µM	0.53 µM	0.45 µM	0.57 µM	0.66 µM	CCCCCC(CCC1C(O)CC2Cc3c(cccc3OCC(=O)O)CC21)OC(=O)OC(C)C (stereo not shown) [XVII]	Trep Concentration 30 min [2]: 0.064 µM; Trep Concentration 30 min [6]: 0.74 µM; Trep Concentration 60 min [6]: 0.85 µM
0 µM	0 µM	0 µM	0 µM	0 µM	0.00 µmol·min/L	0 µM	0 µM	0 µM	0.00 µmol·min/L	0.24 µmol·min/L	0.00 µmol·min/L	0 µM	0 µM	0 µM	0 µM	0.016 µM	0 µM	0 µM	0 µM	CCCCCC(O)CCC1C(OC(=O)CCC(=O)O)CC2Cc3c(cccc3OCC(=O)O)CC21 (stereo not shown) [XXII]	Trep Concentration 30 min [2]: 0 µM; Trep Concentration 30 min [6]: 0 µM; Trep Concentration 60 min [6]: 0 µM
